Measured values from patent US9315543B2, “Tyrosine based linkers for the releasable connection of peptides” (Bayer Intellectual Property GmbH, priority 2011, dated 2016).

Test: Cleavage kinetics (stability) of tyrosine based linker derivatives in buffer at pH 4 and pH 7.4, HPLC
Format: physicochemical
Conditions: room temperature; for % cleaved pH 4, 0 h / % cleaved pH 4, 24 h: pH 4 solution/acetonitrile; for % cleaved pH 4, 0 h / % cleaved pH 4, 24 h / % cleaved pH 7.4, 0 h / % cleaved pH 7.4, 6 h / % cleaved pH 7.4, 24 h: HPLC peak area; for % cleaved pH 7.4, 0 h / % cleaved pH 7.4, 6 h / % cleaved pH 7.4, 24 h: pH 7.4 buffer/acetonitrile; for cleavage kinetic (in words): summary of Table 1, pH 4 and pH 7.4, up to 24 h
From the text: To illustrate the different kinetics of different linkers, simple derivatives of the tyrosine based molecule were synthesized and the cleavage at different time points in buffer at pH 4 and pH 7.4 were monitored. Based on the exact composition of the tyrosine based linker structure the formation of the cyclic urea with concomittant release of the free tyrosine OH group has different cleavage kinetics. These can be easily measured in vitro and used as predictors for the in vivo kinetics.
For the kinetic studies with regard to the stability of the different linkers 0.3 mg of the dry test compound are dissolved in 0.5 ml acetonitrile. For a better dilution the sample is sonified for about 10 seconds. Then 1.0 ml of the buffer solutions are added and the samples are sonified again.
Chemical composition of the solution/buffer which are used: • pH 4: 1 liter of deionized water was adjusted to pH 4 with 1N hydrochloric acid • pH 7.4: 90 g sodium chloride, 13.61 g potassium dihydrogene phosphate and 83.35 g 1 M sodium hydroxide solution were dissolved in 1 liter of deionized water. This solution was diluted with water at the rate of 1:10.
The test compound concentration is analysed by HPLC every hour during 24 hours at room temperature. The quantity of the test compound is determined by the peak areas.
HPLC method: Agilent 1100 with DAD (G1315B), binary pump (g1312A), autosampler (G1329A), column thermostat (G1330B), Column: Kromasil 100 C18/250 mm×4 mm/5 μm, Column temperature: 30° C., Eluent A: water+5 ml perchloric acid/1, Eluent B: acetonitrile, Gradient: 0-1.0 min 90% A, 10% B; 1.0-20.0 min 10% A, 90% B; 20.0-21.0 min 10% A, 90% B; 21.0-23.0 min 90% A, 10% B; 23.0-25.0 min 90% A, 10% B; Flow rate: 1.5 ml/min, Detection: 210 nm, Injection volume: 10 μl.

NC(=O)[C@H](CSC1CC(=O)N(Cc2ccccc2)C1=O)NC(=O)[C@@H](N)CCNC(=O)Oc1ccc(C[C@H](N)C(=O)Nc2ccccc2)cc1 (stereo partly drawn) [Example 1C, O-{[(3S)-3-Amino-4-({(2R)-1-amino-3-[(1-benzyl-2,5-dioxopyrrolidin-3-yl)sulfanyl]-1-oxopropan-2-yl}amino)-4-oxobutyl]carbamoyl}-N-phenyl-L-tyrosinamide]
% cleaved pH 4, 0 h: 0%
% cleaved pH 4, 24 h: 1%
% cleaved pH 7.4, 0 h: 0%
% cleaved pH 7.4, 6 h: 7%
% cleaved pH 7.4, 24 h: 21%

NC(=O)[C@H](CSC1CC(=O)N(Cc2ccccc2)C1=O)NC(=O)[C@@H](N)CCCNC(=O)Oc1ccc(C[C@H](N)C(=O)Nc2ccccc2)cc1 (stereo partly shown) [Example 3C]
% cleaved pH 4, 0 h: 0%
% cleaved pH 4, 24 h: 0%
% cleaved pH 7.4, 0 h: 0%
% cleaved pH 7.4, 6 h: 2%
% cleaved pH 7.4, 24 h: 11%
cleavage kinetic (in words): cleaved slowly

NCCC[C@H](NC(=O)Oc1ccc(C[C@H](N)C(=O)Nc2ccccc2)cc1)C(=O)N[C@@H](CSC1CC(=O)N(Cc2ccccc2)C1=O)C(N)=O (stereo partly shown) [Example 4C]
% cleaved pH 4, 0 h: 0%
% cleaved pH 4, 24 h: 0%
% cleaved pH 7.4, 0 h: 0%
% cleaved pH 7.4, 6 h: 23%
% cleaved pH 7.4, 24 h: 65%
cleavage kinetic (in words): cleaved quickly

NCC[C@H](NC(=O)Oc1ccc(C[C@H](N)C(=O)Nc2ccccc2)cc1)C(=O)N[C@@H](CSC1CC(=O)N(Cc2ccccc2)C1=O)C(N)=O (stereo partly shown) [Example 5C]
% cleaved pH 4, 0 h: 0%
% cleaved pH 4, 24 h: 0%
% cleaved pH 7.4, 0 h: 0%
% cleaved pH 7.4, 6 h: 75%
% cleaved pH 7.4, 24 h: 100%
cleavage kinetic (in words): cleaved quickly

N[C@@H](CCNC(=O)Oc1ccc(C[C@H](N)C(=O)Nc2ccccc2)cc1)C(=O)NCCSC1CC(=O)N(Cc2ccccc2)C1=O (stereo partly shown) [Example 6C]
% cleaved pH 4, 0 h: 0%
% cleaved pH 4, 24 h: 0%
% cleaved pH 7.4, 0 h: 0%
% cleaved pH 7.4, 6 h: 6%
% cleaved pH 7.4, 24 h: 20%

NC(=O)CNC(=O)[C@H](CSC1CC(=O)N(Cc2ccccc2)C1=O)NC(=O)[C@@H](N)CCNC(=O)Oc1ccc(C[C@H](N)C(=O)Nc2ccccc2)cc1 (stereo partly shown) [Example 7C]
% cleaved pH 4, 0 h: 0%
% cleaved pH 4, 24 h: 0%
% cleaved pH 7.4, 0 h: 0%
% cleaved pH 7.4, 6 h: 6%
% cleaved pH 7.4, 24 h: 23%

NC(=O)[C@H](CSC1CC(=O)N(Cc2ccccc2)C1=O)NC(=O)CNC(=O)[C@@H](N)CCNC(=O)Oc1ccc(C[C@H](N)C(=O)Nc2ccccc2)cc1 (stereo partly shown) [Example 8C]
% cleaved pH 4, 0 h: 0%
% cleaved pH 4, 24 h: 0%
% cleaved pH 7.4, 0 h: 0%
% cleaved pH 7.4, 6 h: 6%
% cleaved pH 7.4, 24 h: 23%

NC(=O)[C@H](CSC1CC(=O)N(Cc2ccccc2)C1=O)NC(=O)CCCCCNC(=O)[C@@H](N)CCNC(=O)Oc1ccc(C[C@H](N)C(=O)Nc2ccccc2)cc1 (stereo partly shown) [Example 9C]
% cleaved pH 4, 0 h: 0%
% cleaved pH 4, 24 h: 0%
% cleaved pH 7.4, 0 h: 0%
% cleaved pH 7.4, 6 h: 7%
% cleaved pH 7.4, 24 h: 25%

N[C@@H](CCNC(=O)Oc1ccc(C[C@H](N)C(=O)Nc2ccccc2)cc1)C(=O)NCCOCCOCCOCCn1cc(-c2ccccc2)nn1 [Example 10Cb, O-{[(14S)-14-Amino-13-oxo-1-(4-phenyl-1H-1,2,3-triazol-1-yl)-3,6,9-trioxa-12-azahexadecan-16-yl]carbamoyl}-N-phenyl-L-tyrosinamide]
% cleaved pH 4, 0 h: 0%
% cleaved pH 4, 24 h: 0%
% cleaved pH 7.4, 0 h: 0%
% cleaved pH 7.4, 6 h: 4%
% cleaved pH 7.4, 24 h: 14%
cleavage kinetic (in words): cleaved slowly

NC[C@H](NC(=O)Oc1ccc(C[C@H](N)C(=O)Nc2ccccc2)cc1)C(=O)N[C@@H](CSC1CC(=O)N(Cc2ccccc2)C1=O)C(N)=O (stereo partly shown) [Example 11C]
% cleaved pH 4, 0 h: 0%
% cleaved pH 4, 24 h: 19%
% cleaved pH 7.4, 0 h: 0%
% cleaved pH 7.4, 6 h: 100%
% cleaved pH 7.4, 24 h: 100%
cleavage kinetic (in words): cleaved very quickly, even at pH4

N[C@@H](Cc1ccc(OC(=O)NCC[C@H](N)C(=O)N[C@@H](CSC2CC(=O)N(Cc3ccccc3)C2=O)C(=O)Nc2ccccc2)cc1)C(=O)Nc1ccccc1 (stereo partly shown) [Example 12C]
% cleaved pH 4, 0 h: 0%
% cleaved pH 4, 24 h: 0%
% cleaved pH 7.4, 0 h: 0%
% cleaved pH 7.4, 6 h: 29%
% cleaved pH 7.4, 24 h: 76%
cleavage kinetic (in words): cleaved quickly
